According to patent US20110306570A1, “Na/K-Atpase Expression as an Indicator for the Treatment of Cancer” (UNIVERSITY OF TOLEDO, priority 2008, published 2011):

Experiments:
Na/K-ATPase α1 mRNA = Na/K-ATPase α1 mRNA by RT-PCR, BT20 cells; type: cell-based, human; details: 10 nM ouabain, 24 h
Experimental: Total RNA was extracted and applied for RT-PCR to probe Na/K-ATPase α1 as described in the Experimental Procedures section.
Quantitative RT-PCR: The cells were seeded in 6-cm dishes and serum-starved for 24 h after the confluence reached 90%. […] Total RNA was extracted using TRIzol and subjected to quantitative RT-PCR analysis. The assays were performed on the AB 7500 real time PCR system with the following protocol: 1 cycle (6 min at 95° C.), 40 cycles (30 s at 95° C., 30 s at 52° C., 30 s at 72° C., and 1 min at 85° C.), followed by a dissociation stage to ensure a single product. The reactions are in a total volume of 25 μl, including 1.25 µl of Sybr Green (Invitrogen), 0.125 µl of DNA polymerase (Denville), 2.5 µl of dNTP (Invitrogen), 10 ng of cDNA. Primer pairs were used at 5 μM concentration, and the sequences are:
The relative Na/K-ATPase al gene expression was calculated by comparative threshold (CT) method (ΔΔCT). To normalize the difference amounts of cDNA, GAPDH was used as an internal control.

Akt = Akt phosphorylation (pAkt) by Western blot, BT20 cells; type: cell-based, human; details: ouabain 15 min
[1] = target: Na/K-ATPase in the plasma membrane (Homo sapiens, UniProt P05023); test: 3H-ouabain binding after ouabain pre-treatment, DU145 cells; type: cell-based; parameters: endogenous in cells; details: ouabain 72 h
Experimental: The cells were washed and 3H-ouabain were performed as described herein. * p<0.05, ** p<0.01
To assess the functional consequence of these changes in α1 expression, the inventors measured the number of functional Na/K-ATPase in the plasma membrane.
Afterwards, cells were washed with serum-free medium and subjected to 3H-ouabain binding assay. Briefly, cells were incubated in K+-free Kreb's solution (NaCl 137 mM; KCl 0 mM; CaCl2 2.8 mM; NaH2PO4 0.6 mM; MgSO4 1.2 mM; dextrose; 10 mM; Tris 15 mM; pH7.4) for 15 min, and then exposed to 100 nM 3H-ouabain for 30 min at 37° C. At the end of incubation, the cells were washed 3 times with ice-cold K+-free Kreb's solution, solubilized in 0.1M NaOH-0.2% SDS, and counted in a scintillation counter for 3H-ouabain. […] Paralleled plates were used for counting cell numbers. 3H-ouabain binding data were calculated as binding sites per cell.

C[C@@H]1O[C@@H](O[C@H]2C[C@@H](O)[C@]3(CO)[C@H]4[C@H](O)C[C@]5(C)[C@@H](C6=CC(=O)OC6)CC[C@]5(O)[C@@H]4CC[C@]3(O)C2)[C@H](O)[C@H](O)[C@H]1O [ouabain]
levels of α1 mRNA (Na/K-ATPase α1 mRNA): no effect on levels of α1 mRNA | Akt phosphorylation (Akt): failed to do so | surface active Na/K-ATPase (3H-ouabain binding) [1]: significant decrease in surface active Na/K-ATPase
